Here are results for five compounds from patent publication US20130324555A1, “Method of use of pharmaceutical formulations for the treatment of apicomplexan diseases in animals” (priority 2012, published 2013).

Each structure is given as a SMILES string. “Also recorded” adds a separate entry of the source. Read-outs that look alike come from different tables or passages of the source.

For orientation: IC50 means the concentration at which inhibition is half-maximal. As usually defined, the IC90 is the concentration at which the effect reaches the 90% level.

Assay [1] relates to P. falciparum D6 (CDC/Sierra Leone). Briefly: Malaria SYBR Green 1-Based Fluorescence (MSF) Assay, strain D6. The assay is classed as cell-based. As to conditions: for IC50: Plasmodium falciparum. As for the experimental part: Compound activity against P. falciparum, the causative agent of malaria, was assessed using the Malaria SYBR Green 1-Based Fluorescence (MSF) Assay. This microtiter plate drug sensitivity assay uses the presence of malarial DNA as a measure of parasitic proliferation. The assay is a microtiter plate drug sensitivity assay that uses the presence of malarial DNA as a measure of parasitic proliferation in the presence of antimalarial drugs or experimental compounds based on modifications of previously described methods (Plouffe et al., Proc Natl Acad Sci USA. 2008, 105, 9059-9064), (Johnson et al., Antimicrob. Agents Chemother. 2005, 49, 3463-3467).
Selected compounds were examined for activity against two strains of P. falciparum: D6 (CDC/Sierra Leone), a drug-sensitive and readily killed by chloroquine, and TM90-C235, a multi-drug resistant strain resistant to chloroquine.
D6 (CDC/Sierra Leone) and TM90-C235 (WRAIR, Thailand) laboratory strains of P. falciparum were used for each drug sensitivity assessment. The parasite strains were maintained continuously in long-term cultures as previously described in Johnson et al, and P. falciparum strains in late-ring or early-trophozoite stages were cultured in predosed 384-well microtiter drug assay plates in 38 μl culture volume per well at a starting parasitemia of 0.3% and a hematocrit of 2%. Pre-dosed, sterile, 384 well black optical bottom microtiter drug plates for use in the MSF assay were produced using a Tecan EVO Freedom Liquid Handling System (Tecan US, Durham, N.C.). Dose response plates were produced at a final concentration ranging from 0.5-10000 ng/ml in quadruplicate (twelve two-fold serial dilutions of each test compound or chloroquine control in DMSO. Each run was validated by a batch control plate with chloroquine (Sigma-Aldrich Co., Catalog #C6628) at a final concentration of 2000 ng/ml. The cultures were incubated for 72 hours at 37° C., 5% CO2, 5% O2 and 90% N2. Lysis buffer (38 μl per well), consisting of 20 mM Tris HCl, 5 mM EDTA, 1.6% Triton X, 0.016% saponin, and SYBR green I dye at a 20× concentration (Invitrogen, Catalog #S-7567) was then added to the assay plates utilizing the Tecan EVO Freedom system for a final SYBR Green concentration of 10×. Plates were incubated in the dark at room temperature in the dark for 24 hours.
Compound activity was assessed by examining for the relative fluorescence units (RFU) per well using the Tecan Genios Plus (Tecan US, Inc., Durham, N.C.). GraphPad Prism (GraphPad Software Inc., San Diego, Calif.) using the nonlinear regression (sigmoidal dose-response/variable slope) equation was used to determine IC50 values.

Another assay concerns T. gondii tachyzoites. Briefly: In vitro inhibition of T. gondii tachyzoites (RH-YFP fluorescence / [3H]-uracil incorporation). The conditions noted are these: for IC90 / IC50: Toxoplasma gondii; for activity against T. gondii tachyzoites, in words: only MIC50≦1 μM considered active. The format is cell-based. As for the experimental part:
Determination of the anti-apicomplexan activity of Compounds of Formula I may be determined by one skilled in the art. Parasite proliferation was monitored by using stably transfected type I RH-YFP parasites, which constitutively express Yellow Florescent Protein. Proliferation also was tested using a [^3H]-Uracil incorporation assay, as Uracil is incorporated into nucleic acids of T. gondii tachyzoites, but not mammalian cells, as they divide. Complimentary challenge assays ensured that the observed fluorescence data was due to parasite inhibition and not to quenched fluorescence. Pyrimethamine and sulfadiazine were used as positive controls, and DMSO at a concentration of 0.1% was used as the negative control. Because T. gondii is an obligate parasite, compounds that are toxic to host cells will appear to inhibit parasite growth. Therefore, all test compounds were simultaneously evaluated for efficacy and toxicity against human cells.
Test compounds were dissolved in DMSO to make a 10 mM solution, and subsequently diluted with IMDM-C to the concentrations used in bioassay. In the in vitro experiments DMSO concentration was not greater than 0.1% unless otherwise specified. RH-YFP parasites, which stably express Yellow Florescent Protein, were used. Tachyzoites were extracted from HFF cells by double passage through a 25-gauge needle, centrifuged for 15 minutes at 1500 RPM, and resuspended in IMDM-C. Confluent monolayers of HFF cells were infected with parasites in 96-well plates (Falcon 96 Optilux Flat-bottom) with 3,500 parasites in 100 uL per well. One hour after inoculation, test compounds and control media were added for a final volume of 200 uL per well. Parasite proliferation was assessed using [^3H]-Uracil incorporation or YFP Fluorescence assay.
Human Foreskin Fibroblast (HFF) cells were maintained in confluent monolayers in Iscoves's Modified Dulbecco's Medium supplemented with 10% fetal bovine serum, 1% GlutaMAX and 1% penicillin-streptomycin-fungizone (IMDM-C). T. gondii tachyzoites were cultivated in HFF monolayers. Parasites and cells were maintained at 33° C. or 37° C. and 5% CO2. The strains of parasite used in this study include RH, RH-YFP, and Prugnaud FLUC (Type 2 parasites stably transfected with luciferase), Me49 strain, and TgGoatUS4 isolate.
25 μL of 0.1 mCi/mL*^3H]-Uracil or [^3H]-Thymidine was added to each well 24 hours before reading plates. At harvesting, contents of the wells were transferred onto a 96-well UniFilter GF/C filter plates using a Filtermate 196 cell harvester (Packard). [^3H]-Uracil and [^3H]-Thymidine incorporation was measured using a Microplate Scintillation Luminescence Counter (Packard).
72 hours after initiation of the in vitro challenge assay, parasite proliferation was assessed by reading fluorescence of YFP parasites with a Synergy H4 Hybrid Reader (BioTek) and Gen5 1.10 software, using a bottom optics positions, excitation wavelength of 514 nm, and emission wavelength of 540 nm.

The subject of another assay is RH-YFP tachyzoites. Kind of assay: Determination of static or cidal effects. The conditions noted are these: compound at 1 μM; for static or cidal effect: growth assessed at days 11, 17, 25. The assay is classed as cell-based, T. gondii. As for the experimental part:
In order to determine whether leading compounds in this study inhibited parasite proliferation by either a cidal or static mechanism, four were selected (3i, 3j, 7a, and 14a) and applied at four to eight times MICs50 to parasites. In this assay, RH-YFP tachyzoites were treated with each compound at 1 μM under various dosing conditions:
Condition A: Parasites were treated for four days, then compound was removed
Condition B: Parasites were treated for ten days, then compound was removed
Condition C: Compound was refreshed at four days then removed at ten days
Condition D: Compound was maintained for the duration of the experiment
The four and ten day time points were taken to reveal the impact of extended exposure of the parasites to the test substance. Compounds were refreshed at four days to examine whether compound degradation could contribute to an observed static effect. Parasite growth was assessed at days 11, 17, and 25. The growth data, as a function of ^3H-uracil uptake, is expressed in FIG. 7. 4 days, Condition A; 10 days, renewed at 4, Condition B; 10 days, Condition C; All time, Condition D. Ordinate: Counts per minute.
RH-YFP tachyzoites were treated with each compound at 1 μM under one of four conditions: a) parasites were treated for four days, then compound was removed; b) parasites were treated for ten days, then compound was removed; c) compound was refreshed at four days and removed at ten; or d) compound was maintained for the duration of the experiment. The four and ten day time points were taken to reveal the impact of extended exposure of the parasites to the test substance. Compounds were refreshed at four days to examine whether compound degradation could contribute to an observed static effect. Parasite growth was assessed at 11, 17, and 25 days.

Setting [2] is: D6, chloroquine-sensitive strain D6, read-out: D6 IC50.
[3] abbreviates: D6, chloroquine-sensitive strain D6, read-out: D6 IC50 (molar).
Setting [4] is: chloroquine-sensitive strain D6.
Where [5] appears, read: serial dilutions, additional test concentrations, RH-YFP, read-out: IC90.
Where [6] appears, read: serial dilutions, additional test concentrations, RH-YFP, read-out: IC50.

As to `CC(C)(C)c1cccc(NC(=O)c2cc(Cl)ccc2O)c1` [Compound 3i, N-(3-tert-butylphenyl)-5-chloro-2-hydroxybenzamide], the IC50 was found to be 0.957 µg/mL in assay [1] (setting [2]) and 3000 nM in assay [1] (setting [3]). Also, the “D6 IC50” value in assay [1] (setting [4]) stood at 0.9569 µg/mL. In the assay with T. gondii tachyzoites (setting [5]), the IC90 lay in the range of 16 to 31 nM. Also, the “activity against T. gondii tachyzoites, in words” value (shortened to “activity”) in the assay on T. gondii tachyzoites is “active at low nanomolar concentrations”. Also, the “static or cidal effect” value in the assay on RH-YFP tachyzoites is “parasitostatic; also recorded: static effect”.
Turning to `O=C(Nc1cc(C(F)(F)F)cc(C(F)(F)F)c1)c1cc(Cl)ccc1O` [Compound 3j], the IC50 in assay [1] (chloroquine-sensitive strain D6, read-out: D6 IC50) was determined as 0.593 µg/mL. In addition, in the assay with T. gondii tachyzoites (setting [6]), the IC50 lay within 16 to 31 nM. The IC90 in the assay on T. gondii tachyzoites (setting [5]) lay in the range of 125 to 250 nM. The “activity” value with T. gondii tachyzoites is recorded as “active at low nanomolar concentrations; also recorded: promising activity”. In the assay with RH-YFP tachyzoites, the “duration of treatment after which a cidal effect was shown” value (“duration of treatment” below) is recorded as “four days” and the “static or cidal effect” value is recorded as “parasitocidal; also recorded: cidal”.
`O=C(Oc1ccc(Cl)cc1C(=O)Nc1ccc([N+](=O)[O-])cc1Cl)c1ccccc1` [Compound 7a, 4-chloro-2-((2-chloro-4-nitrophenyl)carbamoyl)phenyl benzoate]: the concentration for half-maximal inhibition (IC50) was 0.295 µg/mL in assay [1] (setting [2]), 700 nM in assay [1] (setting [3]) and 61 to 125 nM with T. gondii tachyzoites (setting [6]). Moreover, the “D6 IC50” value in assay [1] (setting [4]) was found to be 0.2946 µg/mL. In addition, in the assay with T. gondii tachyzoites (setting [5]), the IC90 was 125 to 250 nM. In the assay on T. gondii tachyzoites, the “activity” value is “active at low nanomolar concentrations; also recorded: apparent increase in potency over 4”. Also, the “duration of treatment” value in the assay on RH-YFP tachyzoites was “four days”. Besides, the “static or cidal effect” value in the assay on RH-YFP tachyzoites was “parasitocidal; also recorded: cidal”.
For the compound `CN(CC(=O)NN)C(=O)Oc1ccc(Cl)cc1C(=O)Nc1ccc([N+](=O)[O-])cc1Cl.Cl` [Compound 14a, 4-chloro-2-((2-chloro-4-nitrophenyl)carbamoyl)phenyl (2-hydrazinyl-2-oxoethyl)(methyl)carbamate hydrochloride], the half-inhibitory concentration (IC50) in assay [1] (D6, read-out: D6 IC50) came out at 1.33 µg/mL. Besides, in the assay with T. gondii tachyzoites, the IC50 lay within 16 to 31 nM; the IC90 fell in the range of 125 to 250 nM; the “activity” value is listed as “active at low nanomolar concentrations”. Moreover, in the assay with RH-YFP tachyzoites, the “duration of treatment” value was “ten days” and the “static or cidal effect” value was “cidal”.
As to `CN(CC(=O)NN)C(=O)Oc1ccc(Cl)cc1C(=O)Nc1ccc(C(F)(F)F)cc1C(F)(F)F.Cl` [Compound 14b, 2-((2,4-bis(trifluoromethyl)phenyl)carbamoyl)-4-chlorophenyl (2-hydrazinyl-2-oxoethyl)(methyl)carbamate hydrochloride], in the assay on T. gondii tachyzoites, the IC50 is 125 to 250 nM; the IC90 lay in the range of 125 to 250 nM; the “activity” value is “active at low nanomolar concentrations”.
